According to ChEMBL document CHEMBL1201862, “PubChem BioAssay data set” (2004):
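These data come from cells grown in 96-well plates and exposed to compound for 48 hours at five concentrations. GI50: concentration for 50% inhibition of growth.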 Calls of active or inactive are those of the source. Rule as the data show it: active = GI50 up to about 1.1 µM and inactive = higher.

How the values were obtained:
Test in all cases: NCI tumour cell line growth inhibition, 48 h
HT-29 = test system: HT-29
UACC-257 = test system: UACC-257
HCC 2998 = test system: HCC 2998
MDA-MB-435 = test system: MDA-MB-435
UACC-62 = test system: UACC-62
SF-539 = test system: SF-539
SF-295 = test system: SF-295
HOP-62 = test system: HOP-62
KM12 = test system: KM12
OVCAR-8 = test system: OVCAR-8
SN12C = test system: SN12C
OVCAR-3 = test system: OVCAR-3
SNB-75 = test system: SNB-75
SK-MEL-2 = test system: SK-MEL-2
SK-MEL-28 = test system: SK-MEL-28
M14 = test system: M14
MCF7 = test system: MCF7
HOP-92 = test system: HOP-92
HL-60 = test system: HL-60

SMILES	GI50 (HT-29)	GI50 (UACC-257)	GI50 (HCC 2998)	GI50 (MDA-MB-435)	GI50 (UACC-62)	GI50 (SF-539)	GI50 (SF-295)	GI50 (HOP-62)	GI50 (KM12)	GI50 (OVCAR-8)	GI50 (SN12C)	GI50 (OVCAR-3)	GI50 (SNB-75)	GI50 (SK-MEL-2)	GI50 (SK-MEL-28)	GI50 (M14)	GI50 (MCF7)	GI50 (HOP-92)	GI50 (HL-60)
CN(C)C(=N)/N=C(\N)Nc1cccc(Cl)c1	> 100 µM (inactive)	90.8 µM (inactive)	> 100 µM (inactive)	> 100 µM (inactive)	89.1 µM (inactive)	47.8 µM (inactive)	84.1 µM (inactive)	> 100 µM (inactive)	> 100 µM (inactive)	61.4 µM (inactive)	98.6 µM (inactive)	> 100 µM (inactive)	91.2 µM (inactive)	> 100 µM (inactive)	> 100 µM (inactive)	58.2 µM (inactive)	90.8 µM (inactive)		
CC(C)(CN1CCCCC1)C(=O)CC(SCCS(=O)(=O)O)c1ccccc1 (stereo not drawn)	11.4 µM (inactive)		23.3 µM (inactive)	11.3 µM (inactive)	14 µM (inactive)	12.6 µM (inactive)	10.9 µM (inactive)	30.8 µM (inactive)	18.5 µM (inactive)	18.8 µM (inactive)	20 µM (inactive)	5.87 µM (inactive)	20.4 µM (inactive)	37.9 µM (inactive)		9.38 µM (inactive)	10.2 µM (inactive)	5.64 µM (inactive)	
CC[N+](C)(CC)Cc1ccccc1[N+](=O)[O-]	36.1 µM (inactive)	> 100 µM (inactive)		> 100 µM (inactive)	> 100 µM (inactive)	> 100 µM (inactive)	> 100 µM (inactive)	48.4 µM (inactive)	> 100 µM (inactive)	39.8 µM (inactive)	> 100 µM (inactive)	26.9 µM (inactive)	> 100 µM (inactive)	> 100 µM (inactive)	> 100 µM (inactive)	> 100 µM (inactive)	> 100 µM (inactive)	> 100 µM (inactive)	> 100 µM (inactive)
CCc1ccc2c(c1)CC1(C2)Cc2cc3c(cc2C1)C(=O)CC3 (stereo not drawn)	6.31 µM (inactive)	8.39 µM (inactive)	10.5 µM (inactive)	2.69 µM (inactive)	> 100 µM (inactive)	18 µM (inactive)	19.1 µM (inactive)	19.8 µM (inactive)	10.5 µM (inactive)	21.9 µM (inactive)	27 µM (inactive)	17.3 µM (inactive)		4.26 µM (inactive)		25.9 µM (inactive)	5.08 µM (inactive)	14.7 µM (inactive)	2.69 µM (inactive)
CNc1ncnc2c1cnn2CCCCO	> 100 µM (inactive)	> 100 µM (inactive)	> 100 µM (inactive)	> 100 µM (inactive)	> 100 µM (inactive)	> 100 µM (inactive)	> 100 µM (inactive)	> 100 µM (inactive)			> 100 µM (inactive)	> 100 µM (inactive)		> 100 µM (inactive)	> 100 µM (inactive)	> 100 µM (inactive)	> 100 µM (inactive)	> 100 µM (inactive)	> 100 µM (inactive)
COc1cc(C2SCC(=O)N2c2ccc(-c3ccc(-n4c(-c5ccccc5)nc5ccccc5c4=O)cc3)cc2)cc(OC)c1OC (stereo not drawn)	33.3 µM (inactive)	8.04 µM (inactive)	55.2 µM (inactive)	21.8 µM (inactive)	21.2 µM (inactive)	30.3 µM (inactive)		23.3 µM (inactive)	12.6 µM (inactive)	43.4 µM (inactive)	81.5 µM (inactive)	18.5 µM (inactive)		22.2 µM (inactive)	21.9 µM (inactive)	20.5 µM (inactive)	26.2 µM (inactive)	50.7 µM (inactive)	22.3 µM (inactive)
CC1OC(OC2C(O)COC(OC3C(C)OC(OC4C(OC(=O)[C@]56CCC(C)(C)C[C@@H]5C5=CCC7[C@@]8(C)C[C@H](O)[C@H](OC9OC(CO)C(O)C(O)C9O)[C@@](C)(CO)[C@@H]8CC[C@@]7(C)[C@]5(C)CC6)OCC(O)C4O)C(O)C3OC3OCC(O)C(O)C3O)C2O)C(O)C(O)C1O (stereo partly drawn)		14.9 µM (inactive)	16.6 µM (inactive)	21.8 µM (inactive)	22.3 µM (inactive)	18.1 µM (inactive)	20.7 µM (inactive)	17.8 µM (inactive)	25.7 µM (inactive)	19.5 µM (inactive)	17.5 µM (inactive)	17.8 µM (inactive)	22.6 µM (inactive)	21.4 µM (inactive)	11.2 µM (inactive)	11 µM (inactive)	19.8 µM (inactive)	24.8 µM (inactive)	
COc1ccc(NC(=S)NC(=O)c2ccc3c(c2)Sc2ccccc2O3)c([N+](=O)[O-])c1	76.6 µM (inactive)	33.1 µM (inactive)		55.8 µM (inactive)	30.3 µM (inactive)	24.9 µM (inactive)	92 µM (inactive)	33 µM (inactive)	60.1 µM (inactive)	31 µM (inactive)	35.1 µM (inactive)	22.6 µM (inactive)	8.36 µM (inactive)	28.6 µM (inactive)	40.1 µM (inactive)	39.1 µM (inactive)	27.6 µM (inactive)	19.2 µM (inactive)	32.7 µM (inactive)
Cc1cc2c(cc1-c1cc3c(cc1C)C(C(C)C)=C(O)C(=O)/C3=C\Nc1c(C)n(C)n(-c3ccccc3)c1=O)/C(=C/Nc1c(C)n(C)n(-c3ccccc3)c1=O)C(=O)C(O)=C2C(C)C	> 100 µM (inactive)	> 100 µM (inactive)		79.3 µM (inactive)	> 100 µM (inactive)	48.1 µM (inactive)	> 100 µM (inactive)	70.1 µM (inactive)	71.6 µM (inactive)	82 µM (inactive)	> 100 µM (inactive)	50.2 µM (inactive)	> 100 µM (inactive)	> 100 µM (inactive)	> 100 µM (inactive)	50.1 µM (inactive)	38.8 µM (inactive)	78.2 µM (inactive)	33.9 µM (inactive)
O=C1C=CC(=O)c2c1ccc1c3ccccc3n(-c3ccccc3[N+](=O)[O-])c21	5.2 µM (inactive)	3.56 µM (inactive)	3.42 µM (inactive)	2.26 µM (inactive)	4.91 µM (inactive)	22.5 µM (inactive)	22.6 µM (inactive)	18.6 µM (inactive)	8.97 µM (inactive)	2.03 µM (inactive)	4.01 µM (inactive)	2.44 µM (inactive)	13.9 µM (inactive)	13.3 µM (inactive)	8.55 µM (inactive)	2.03 µM (inactive)	3.3 µM (inactive)		1.06 µM (active)
Cc1[nH]n(-c2ncc(C#N)c(=O)[nH]2)c(=O)c1CCO	> 100 µM (inactive)	> 100 µM (inactive)	> 100 µM (inactive)	> 100 µM (inactive)	> 100 µM (inactive)	> 100 µM (inactive)	> 100 µM (inactive)	> 100 µM (inactive)	> 100 µM (inactive)	> 100 µM (inactive)	> 100 µM (inactive)	> 100 µM (inactive)	16.4 µM (inactive)	> 100 µM (inactive)	> 100 µM (inactive)	> 100 µM (inactive)	> 100 µM (inactive)	> 100 µM (inactive)	
NCCCNCCCNCCCN	> 100 µM (inactive)	> 100 µM (inactive)	> 100 µM (inactive)	> 100 µM (inactive)	> 100 µM (inactive)		> 100 µM (inactive)	> 100 µM (inactive)	> 100 µM (inactive)	> 100 µM (inactive)	> 100 µM (inactive)	> 100 µM (inactive)		> 100 µM (inactive)	> 100 µM (inactive)	> 100 µM (inactive)	> 100 µM (inactive)		> 100 µM (inactive)
COC(=O)/C=C/c1cc(O)c2c(c1)[C@H](C(=O)OC)[C@@H](c1ccc(O)c(O)c1)O2	3.16 µM (inactive)	17.4 µM (inactive)	19.2 µM (inactive)	< 0.01 µM (active)	0.0865 µM (active)	0.0311 µM (active)	0.476 µM (active)	0.333 µM (active)	0.283 µM (active)	0.169 µM (active)	0.18 µM (active)	0.0339 µM (active)	0.0195 µM (active)	0.0783 µM (active)	0.132 µM (active)	0.0386 µM (active)	0.108 µM (active)	9.89 µM (inactive)	
Oc1ccccc1/C=N/Nc1nnc2c3ccccc3c3ccccc3c2n1	> 100 µM (inactive)	25.2 µM (inactive)		28.1 µM (inactive)	61.4 µM (inactive)	> 100 µM (inactive)	32.8 µM (inactive)	42.6 µM (inactive)	71.4 µM (inactive)	> 100 µM (inactive)	> 100 µM (inactive)	14.6 µM (inactive)	20.8 µM (inactive)	55.5 µM (inactive)	> 100 µM (inactive)	> 100 µM (inactive)	32.3 µM (inactive)	> 100 µM (inactive)	> 100 µM (inactive)
O=c1[nH]c2ccccc2c2nc3ccccc3n12	49.5 µM (inactive)	38.1 µM (inactive)	27.9 µM (inactive)	> 100 µM (inactive)	6.64 µM (inactive)	24.4 µM (inactive)	62.4 µM (inactive)	38.1 µM (inactive)	22.4 µM (inactive)	> 100 µM (inactive)	> 100 µM (inactive)	54.5 µM (inactive)				> 100 µM (inactive)	21.8 µM (inactive)	13.9 µM (inactive)	> 100 µM (inactive)
